Source: patent publication US20230265094A1, “RIPK1 INHIBITORS AND METHODS OF USE” (Merck Sharp & Dohme LLC, priority 2020, published 2023)
Structures can show the parent of a compound that is named as a salt.

Target: T1, RIPK1 (Homo sapiens, UniProt Q13546)
T1 construct: recombinant GST-RIPK1 kinase domain (residues 1-327) enzyme produced from baculovirus-transfected Sf21 cells; host or cells: baculovirus-transfected Sf21 insect cells
T1 sequence (Q13546 1-327): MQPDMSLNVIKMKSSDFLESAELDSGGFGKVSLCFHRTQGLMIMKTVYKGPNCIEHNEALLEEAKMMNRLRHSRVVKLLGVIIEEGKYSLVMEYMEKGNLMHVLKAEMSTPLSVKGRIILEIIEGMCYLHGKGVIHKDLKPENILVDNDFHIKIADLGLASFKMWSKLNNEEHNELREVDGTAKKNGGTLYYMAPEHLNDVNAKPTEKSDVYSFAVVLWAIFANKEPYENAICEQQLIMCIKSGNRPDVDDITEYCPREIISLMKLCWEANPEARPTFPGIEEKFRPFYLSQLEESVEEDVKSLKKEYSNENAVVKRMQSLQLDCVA
Assay: RIPK1-ADP-Glo enzymatic assay
Type: biochemical
Conditions: ADP-Glo luminescent ADP detection; 25 nM GST-RIPK1 kinase domain (residues 1-327), 300 μM ATP, dephosphorylated-MBP substrate; 30 min pre-incubation, 150 min reaction
Protocol: RIPK1-ADP-Glo Enzymatic Assay
The enzymatic activity of RIPK1 is measured using an assay derived from ADP-Glo kit (Promega™), which provides a luminescent-based ADP detection system. Specifically, the ADP generated by RIPK1 kinase is proportionally detected as luminescent signals in a homogenous fashion. In this context, the assessment of the inhibitory effect of small molecules (EC50) is measured by the effectiveness of the compounds to inhibit the ATP to ADP conversion by RIPK1.
In this assay, the potency (EC50) of each compound was determined from a ten-point (1:3 serial dilution; top compound concentration of 100000 nM) titration curve using the following outlined procedure. To each well of a white ProxiPlus 384 well-plate, 30 nL of compound (1% DMSO in final assay volume of 3 μL) was dispensed, followed by the addition of 2 μL of 1×assay buffer (25 mM Hepes 7.3, 20 mM MgCl2, 50 mM NaCl, 1 mM DTT, 0.005% Tween20, and 0.02% BSA) containing 37.5 nM of GST-RIPK1 (recombinant GST-RIPK1 kinase domain (residues 1-327) enzyme produced from baculovirus-transfected Sf21 cells: MW=62 kDa). Plates were placed in an ambient temperature humidified chamber for a 30 minutes pre-incubation with compound. Subsequently, each reaction was initiated by the addition of 1 μL 1×assay buffer containing 900 μM ATP and […] dephosphorylated-MBP substrate. The final reaction in each well of 3 μL consists of 25 nM of GST-RIPK1, 300 μM ATP, and 3 μM dephosphorylated-MBP. Kinase reactions were allowed to proceed for 150 minutes prior to adding ADP-Glo reagents per Promega's outlined kit protocol. Dose-response curves were generated by plotting percent effect (% product conversion; Y-axis) vs. Log10 compound concentrations (X-axis). EC50 values were calculated using a non-linear regression, four-parameters sigmoidal dose-response model.

Compound | EC50 [nM]
COC(=O)C1CC12CN(C(=O)N1N=CC[C@H]1c1cc(F)cc(F)c1)C2 (mixture of isomers) [Example 1.47, methyl (R and S)-5-((S)-5-(3,5-difluorophenyl)-4,5-dihydro-1H-pyrazole-1-carbonyl)-5-azaspiro[2.3]hexane-1-carboxylate] | 195
CN(c1ccccc1)C1CN(C(=O)N2N=CC[C@H]2c2cc(F)cc(F)c2)C1 [Example 2.17, (S)-(5-(3,5-difluorophenyl)-4,5-dihydro-1H-pyrazol-1-yl)(3-(methyl(phenyl)amino)azetidin-1-yl)methanone, TFA salt] | 7.1
O=C(N1CC(Oc2ccccc2)C1)N1N=CC[C@@H]1c1cccnc1 [Example 2.15, (R)-(3-phenoxyazetidin-1-yl)(5-(pyridin-3-yl)-4,5-dihydro-1H-pyrazol-1-yl)methanone] | 95.6
O=C(N1CC(OC2CCCC2)C1)N1N=CC[C@H]1c1cc(F)cc(F)c1 [Example 1.17, (S)-(3-(cyclopentyloxy)azetidin-1-yl)(5-(3,5-difluorophenyl)-4,5-dihydro-1H-pyrazol-1-yl)methanone, TFA salt] | 11.5
O=C(N1CCC1Cc1ccccc1)N1N=CC[C@H]1c1cc(F)cc(F)c1 (mixture of isomers) [Example 1.22, ((S)-2-benzylazetidin-1-yl)((R and S)-5-(3,5-difluorophenyl)-4,5-dihydro-1H-pyrazol-1-yl)methanone] | 73.6
O=C(N1CC(OCc2ncc(Br)s2)C1)N1N=CC[C@H]1c1cc(F)cc(F)c1 [Example 1.52, (S)-(3-((5-bromothiazol-2-yl)methoxy)azetidin-1-yl)(5-(3,5-difluorophenyl)-4,5-dihydro-1H-pyrazol-1-yl)methanone] | 23.9
N#Cc1cc(OC2CN(C(=O)N3N=CC[C@H]3c3cc(F)cc(F)c3)C2)ncn1 (single isomer, unassigned) [Example 1.6] | 83
Cn1c(OC2CN(C(=O)N3N=CC[C@H]3c3cc(F)cc(F)c3)C2)nc2ccccc21 [Example 3.2, (S)-(5-(3,5-difluorophenyl)-4,5-dihydro-1H-pyrazol-1-yl)(3-((1-methyl-1H-benzo[d]imidazol-2-yl)oxy)azetidin-1-yl)methanone, TFA salt] | 97
Cc1ccccc1OC1CN(C(=O)N2N=CC[C@H]2c2cc(F)cc(F)c2)C1 [Example 1.49, (S)-(5-(3,5-difluorophenyl)-4,5-dihydro-1H-pyrazol-1-yl)(3-(o-tolyloxy)azetidin-1-yl)methanone] | 11.7
O=C(N1CC(Oc2ccccn2)C1)N1N=CC[C@H]1c1cc(F)cc(F)c1 [Example 1.58, (S)-(5-(3,5-difluorophenyl)-4,5-dihydro-1H-pyrazol-1-yl)(3-(pyridin-2-yloxy)azetidin-1-yl)methanone] | 1380
O=C(N1CC(O)C1)N1N=CC[C@H]1c1cc(F)cc(F)c1 [Example 1.15, (S)-(5-(3,5-difluorophenyl)-4,5-dihydro-1H-pyrazol-1-yl)(3-hydroxyazetidin-1-yl)methanone] | 3680
O=C(N1CC(S(=O)(=O)c2ccc(Br)cc2)C1)N1N=CC[C@H]1c1cc(F)cc(F)c1 [Example 1.57, (S)-(3-((4-bromophenyl)sulfonyl)azetidin-1-yl)(5-(3,5-difluorophenyl)-4,5-dihydro-1H-pyrazol-1-yl)methanone] | 12.4

Second part, the compound after the results:

EC50 [nM] | Compound
7.6 | C[C@@H]1[C@@H](Oc2ccc(F)cc2)CN1C(=O)N1N=CC[C@H]1c1cncc(F)c1 [Example 2.22, ((2R,3S)-3-(4-fluorophenoxy)-2-methylazetidin-1-yl)((S)-5-(5-fluoropyridin-3-yl)-4,5-dihydro-1H-pyrazol-1-yl)methanone]
11.9 | N#Cc1cccc(OC2CN(C(=O)N3N=CC[C@H]3c3cc(F)cc(F)c3)C2)c1 [Example 2.44, (S)-3-((1-(5-(3,5-difluorophenyl)-4,5-dihydro-1H-pyrazole-1-carbonyl)azetidin-3-yl)oxy)benzonitrile]
61.7 | CC1(F)CN(C(=O)N2N=CC[C@H]2c2cc(F)cc(F)c2)C1 [Example 1.29, (S)-(5-(3,5-difluorophenyl)-4,5-dihydro-1H-pyrazol-1-yl)(3-fluoro-3-methylazetidin-1-yl)methanone]
811 | O=C(N1CC(O)(c2ccccc2)C1)N1N=CC[C@H]1c1cc(F)cc(F)c1 [Example 1.44, (S)-(5-(3,5-difluorophenyl)-4,5-dihydro-1H-pyrazol-1-yl)(3-hydroxy-3-phenylazetidin-1-yl)methanone]
10 | C[C@H]1[C@@H](Oc2ccc(F)cc2)CN1C(=O)N1N=CC[C@H]1c1cncc(F)c1 [Example 2.18, ((2S,3S)-3-(4-fluorophenoxy)-2-methylazetidin-1-yl)((S)-5-(5-fluoropyridin-3-yl)-4,5-dihydro-1H-pyrazol-1-yl)methanone]
6.6 | C[C@@H]1[C@@H](Oc2ccnc(C#N)c2)CN1C(=O)N1N=CC[C@H]1c1cc(F)cc(F)c1 [Example 2.37, 4-(((2R,3S)-1-((S)-5-(3,5-difluorophenyl)-4,5-dihydro-1H-pyrazole-1-carbonyl)-2-methylazetidin-3-yl)oxy)picolinonitrile]
7.8 | C[C@@H]1[C@@H](Oc2ccc(F)cc2)CN1C(=O)N1N=CC[C@H]1c1cc(F)cc(F)c1 [Example 2.26, ((S)-5-(3,5-difluorophenyl)-4,5-dihydro-1H-pyrazol-1-yl)((2R,3S)-3-(4-fluorophenoxy)-2-methylazetidin-1-yl)methanone]
775 | O=C(N1CC(F)(c2ccccc2)C1)N1N=CC[C@H]1c1cc(F)cc(F)c1 [Example 1.43, (S)-(5-(3,5-difluorophenyl)-4,5-dihydro-1H-pyrazol-1-yl)(3-fluoro-3-phenylazetidin-1-yl)methanone]
12.3 | Cc1ncc([C@@H]2CC=NN2C(=O)N2C[C@H](Oc3ccc(F)cc3)[C@@H]2C)cc1F [Example 2.19, ((S)-5-(5-fluoro-6-methylpyridin-3-yl)-4,5-dihydro-1H-pyrazol-1-yl)((2S,3S)-3-(4-fluorophenoxy)-2-methylazetidin-1-yl)methanone]
6.8 | C[C@H]1[C@@H](Oc2ccc(F)cc2)CN1C(=O)N1N=CC[C@H]1c1cc(F)cc(F)c1 [Example 2.27, ((S)-5-(3,5-difluorophenyl)-4,5-dihydro-1H-pyrazol-1-yl)((2S,3S)-3-(4-fluorophenoxy)-2-methylazetidin-1-yl)methanone]
46.3 | N#Cc1cc(CC2CN(C(=O)N3N=CC[C@H]3c3cc(F)cc(F)c3)C2)ccn1 [Example 2.46, (S)-4-((1-(5-(3,5-difluorophenyl)-4,5-dihydro-1H-pyrazole-1-carbonyl)azetidin-3-yl)methyl)picolinonitrile]
25.5 | CC1(Oc2ccc(F)cc2)CN(C(=O)N2N=CC[C@H]2c2cncc(C#N)c2)C1 [Example 2.32, (S)-5-(1-(3-(4-fluorophenoxy)-3-methylazetidine-1-carbonyl)-4,5-dihydro-1H-pyrazol-5-yl)nicotinonitrile]
64.9 | COC1(C)CN(C(=O)N2N=CC[C@H]2c2ccc(Cl)cc2)C1 [Example 2.13, (S)-(5-(4-chlorophenyl)-4,5-dihydro-1H-pyrazol-1-yl)(3-methoxy-3-methylazetidin-1-yl)methanone]
648 | N#CC1(c2ccccc2)CN(C(=O)N2N=CC[C@H]2c2cc(F)cc(F)c2)C1 [Example 1.39, (S)-1-(5-(3,5-difluorophenyl)-4,5-dihydro-1H-pyrazole-1-carbonyl)-3-phenylazetidine-3-carbonitrile]
